The text below walks through data of US8778982B2, “Synergistic microbicidal compositions” (Rohm and Haas Company, priority 2007, dated 2014).

One may read the MIC as the least concentration at which growth counts as inhibited.

Several values for one entry are separate records, joined by “and”; a condition that tells them apart may be missing. Identical values can stand only once. Like-named read-outs stand apart in the source and are kept apart here.

Holding throughout (type): cell-based
In assay [1] the test system is Escherichia coli (E. coli—ATCC #8739). As to the kind of experiment: Synergy test, microtiter plate high resolution MIC assay, M9GY medium, bacterium. As to conditions: for MIC: Escherichia coli, ATCC8739, 24 h; for Qb: B alone where Qa = 0. The text has this: (§1) One measure of synergism is the industrially accepted method described by Kull, F. C.; Eisman, P. C.; Sylwestrowicz, H. D. and Mayer, R. L., in Applied Microbiology 9:538-541 (1961), using the ratio determined by the formula: Qa/QA+Qb/QB=Synergy Index(“SI”) wherein: • QA=concentration of compound A (first component) in ppm, acting alone, which produced an end point (MIC of Compound A). • Qa=concentration of compound A in ppm, in the mixture, which produced an end point. • QB=concentration of compound B (second component) in ppm, acting alone, which produced an end point (MIC of Compound B). • Qb=concentration of compound B in ppm, in the mixture, which produced an end point.
(§2) When the sum of Qa/QA and Qb/QB is greater than one, antagonism is indicated. […] The lower the SI, the greater is the synergy shown by that particular mixture. The minimum inhibitory concentration (MIC) of a microbicide is the lowest concentration tested under a specific set of conditions that prevents the growth of the tested microorganisms.
(§3) Synergy tests were conducted using standard microtiter plate assays with media designed for optimal growth of the test microorganism. Minimal salt medium supplemented with 0.2% glucose and 0.1% yeast extract (M9GY medium) was used for testing bacteria; Potato Dextrose Broth (PDB medium) was used for testing yeast and mold. In this method, a wide range of combinations of microbicides and other personal care raw materials was tested by conducting high resolution MIC assays in the presence of various concentrations of CMIT/MIT, MIT, or BIT. High resolution MICs were determined by adding varying amounts of microbicide to one column of a microtitre plate and doing subsequent […] dilutions using an automated liquid handling system to obtain a series of endpoints ranging from 2 ppm to 10,000 ppm active ingredient.
(§4) The synergy of the combinations of the present invention was determined against a bacterium, Escherichia coli (E. coli—ATCC #8739), a yeast, Candida albicans (C. albicans—ATCC 10231), and a mold, Aspergillus niger (A. niger—ATCC 16404). The bacteria were used at a concentration of about 5×10^6 bacteria per mL and the yeast and mold at 5×10^5 fungi per mL. These microorganisms are representative of natural contaminants in many consumer and industrial applications. […] (yeast and mold) or 30° C. (bacteria).

Assay [2] concerns Aspergillus niger (A. niger—ATCC 16404). The assay is described as follows: Synergy test, microtiter plate high resolution MIC assay, PDB medium, mold. As to conditions: for MIC: Aspergillus niger; for Qb: B alone where Qa = 0.
Source text: as §1, §2, §3, §4

Assay [3] relates to Candida albicans (C. albicans—ATCC 10231). As to the kind of experiment: Synergy test, microtiter plate high resolution MIC assay, PDB medium, yeast. The conditions noted are these: for MIC: Candida albicans; for Qb: B alone where Qa = 0.
Source text: as §1, §2, §3, §4

Where [4] appears, read: E. coli 8739 - M9GY (1 day), A = MIT, B = Glyceryl caprate.
The mark [5] stands for this setting: A. niger 16404 - PDB (10 days), A = MIT, B = Glyceryl caprate.
[6] abbreviates: C. albicans 10231 - PDB (6 days), A = MIT, B = Glyceryl caprate.
The mark [7] stands for this setting: E. coli 8739 - M9GY (1 day), A = MIT, B = Myristamidopropyl PG-dimonium chloride phosphate.
The mark [8] stands for this setting: A. niger 16404 - PDB (3 days), A = MIT, B = Myristamidopropyl PG-dimonium chloride phosphate.
Setting [9] is: C. albicans 10231 - PDB (6 days), A = MIT, B = Myristamidopropyl PG-dimonium chloride phosphate.

For `CCCCCCCCCCCC(=O)OCC(O)CO` (centres unmarked) [Glycerol monolaurate], the “SI (synergy index)” value in assay [1] (E. coli 8739, M9GY, 1 day) is on record as 1.00; in assay [2] (A. niger 16404, PDB, 10 days), 1.00; in assay [3] (C. albicans 10231, PDB, 6 days) it was 1.00. For the same compound, the “Synergy Index (SI) = Qa/QA+Qb/QB” value in assay [1] (E. coli 8739, M9GY, 1 day) is 1.00; in assay [2] (A. niger 16404, PDB, 3 days), 1.00; in assay [2] (A. niger 16404, PDB, 10 days), 1.00; in assay [3] (C. albicans 10231, PDB, 1 day), 1.00; in assay [3] (C. albicans 10231, PDB, 6 days) it was 1.00. The MIC in assay [1] (read-out: MIC of the component acting alone (QA or QB)) was found to be 20 mg/mL; in assay [1] (read-out: MIC of the component acting alone (Qa or Qb with the other component at 0)), 20 mg/mL; in assay [2] (ATCC16404, 72 h, read-out: MIC of the component acting alone (QA or QB)), 20 mg/mL; in assay [2] (ATCC16404, 240 h, read-out: MIC of the component acting alone (QA or QB)) it was 20 mg/mL; in assay [2] (ATCC16404, 240 h, read-out: MIC of the component acting alone (Qa or Qb with the other component at 0)), 20 mg/mL; in assay [3] (ATCC10231, 24 h, read-out: MIC of the component acting alone (QA or QB)), 20 mg/mL. For the same compound, the MIC in assay [3] (ATCC10231, 144 h, read-out: MIC of the component acting alone (QA or QB)) is 20 mg/mL; in assay [3] (ATCC10231, 144 h, read-out: MIC of the component acting alone (Qa or Qb with the other component at 0)), 20 mg/mL.

`O=c1[nH]sc2ccccc12` [BIT, 1,2-benzisothiazolin-3-one]: the “MIC of the component acting alone (Qa or Qb with the other component at 0)” value (shortened to “MIC … (Qa or Qb with the other component at 0)”) in assay [1] (E. coli 8739, M9GY, 1 day) stood at 20.00 ppm; in assay [1] (E. coli 8739, M9GY, 2 days), 20.00 ppm; in assay [2] (A. niger 16404, PDB, 3 days), 50 ppm; in assay [2] (A. niger 16404, PDB, 4 days), 50 ppm; in assay [2] (A. niger 16404, PDB, 10 days) it was 100.00 ppm; in assay [3] (C. albicans 10231, PDB, 1 day), 15.00 ppm. Also, the “MIC … (Qa or Qb with the other component at 0)” value in assay [3] (C. albicans 10231, PDB, 2 days) was 30.00 ppm; in assay [3] (C. albicans 10231, PDB, 6 days), 30.00 ppm and 40.00 ppm. Moreover, the “SI (synergy index)” value is listed as 1.00 in assay [1] (E. coli 8739, M9GY, 1 day); 1.00 in assay [1] (E. coli 8739, M9GY, 2 days); 1.00 in assay [2] (A. niger 16404, PDB, 3 days); 1.00 in assay [2] (A. niger 16404, PDB, 4 days); 1.00 in assay [2] (A. niger 16404, PDB, 10 days); 1.00 in assay [3] (C. albicans 10231, PDB, 1 day). In addition, the “SI (synergy index)” value in assay [3] (C. albicans 10231, PDB, 2 days) amounted to 1.00; in assay [3] (C. albicans 10231, PDB, 6 days), 1.00. Moreover, the SI is 1.00 in assay [1] (E. coli 8739 - M9GY (1 day), A = BIT, B = Caprylic acid); 1.00 in assay [2] (A. niger 16404 - PDB (3 days), A = BIT, B = Caprylic acid); 1.00 in assay [3] (C. albicans 10231 - PDB (6 days), A = BIT, B = Caprylic acid). Also, the Qa in assay [1] (E. coli 8739 - M9GY (1 day), A = BIT, B = Caprylic acid, A alone where Qb = 0) was found to be 20 ppm; in assay [2] (A. niger 16404 - PDB (3 days), A = BIT, B = Caprylic acid, A alone where Qb = 0) it was 50 ppm; in assay [3] (C. albicans 10231 - PDB (6 days), A = BIT, B = Caprylic acid, A alone where Qb = 0), 20 ppm.

Take `CCCCCCCCCC(=O)OCC(O)CO` (centres unmarked) [Glyceryl caprate]: the “SI (synergy index)” value was 1.00 in assay [1] (E. coli 8739, M9GY, 1 day); 1.00 in assay [2] (A. niger 16404, PDB, 3 days); 1.00 in assay [3] (C. albicans 10231, PDB, 6 days). In addition, the “Synergy Index (SI) = Qa/QA+Qb/QB” value in assay [1] (E. coli 8739, M9GY, 1 day) amounted to 1.00; in assay [2] (A. niger 16404, PDB, 3 days), 1.00; in assay [3] (C. albicans 10231, PDB, 1 day), 1.00. The SI in assay [1] (setting [4]), in assay [2] (setting [5]) and in assay [3] (setting [6]) was 1.00 throughout. Moreover, the Qb is given as 20000 ppm in assay [1] (setting [4]), 2000 ppm in assay [2] (setting [5]) and 2000 ppm in assay [3] (setting [6]). In addition, the MIC in assay [1] (E. coli 8739, M9GY, 1 day, 30° C., read-out: MIC of the component acting alone (QA or QB)) came out at 20 mg/mL; in assay [1] (E. coli 8739, M9GY, 1 day, read-out: MIC of the component acting alone (Qa or Qb with the other component at 0)) it was 20 mg/mL; in assay [2] (ATCC16404, 72 h, A. niger 16404, PDB, 3 days, 25° C., read-out: MIC of the component acting alone (QA or QB)) it was 2 mg/mL; in assay [2] (ATCC16404, 72 h, A. niger 16404, PDB, 3 days, read-out: MIC of the component acting alone (Qa or Qb with the other component at 0)) it was 2 mg/mL; in assay [3] (ATCC10231, 24 h, C. albicans 10231, PDB, 1 day, 25° C., read-out: MIC of the component acting alone (QA or QB)), 2 mg/mL; in assay [3] (ATCC10231, 144 h, C. albicans 10231, PDB, 6 days, read-out: MIC of the component acting alone (Qa or Qb with the other component at 0)), 2 mg/mL.

As to “1-propanaminium, 3,3′,3″-[phosphinylidynetris(oxy)]-tris-[N-(aminopropyl)-2-hydroxy-N,N-dimethyl-N,N′,N″-tri-C6-18 acyl deriv. trichlorides”, the “MIC … (Qa or Qb with the other component at 0)” value in assay [1] (E. coli 8739, M9GY, 1 day) is listed as 80 ppm; in assay [2] (A. niger 16404, PDB, 4 days), 2000 ppm; in assay [3] (C. albicans 10231, PDB, 2 days), 2000 ppm. Further, the “SI (synergy index)” value amounted to 1.00 in assay [1] (E. coli 8739, M9GY, 1 day); 1.00 in assay [2] (A. niger 16404, PDB, 4 days); 1.00 in assay [3] (C. albicans 10231, PDB, 2 days). Further, the “Synergy Index (SI) = Qa/QA+Qb/QB” value in assay [1] (E. coli 8739, M9GY, 2 days) is given as 1.00; in assay [2] (A. niger 16404, PDB, 3 days), 1.00; in assay [3] (C. albicans 10231, PDB, 1 day), 1.00. The “MIC of the component acting alone (QA or QB)” value came out at 100 ppm in assay [1] (E. coli 8739, M9GY, 2 days, 30° C.); 2000 ppm in assay [2] (A. niger 16404, PDB, 3 days, 25° C.); 800 ppm in assay [3] (C. albicans 10231, PDB, 1 day, 25° C.). Further, the SI in assay [1] (setting [7]), in assay [2] (setting [8]) and in assay [3] (setting [9]) was 1.00 throughout. Further, the results for the Qb in assay [1] (setting [7]), in assay [2] (setting [8]) and in assay [3] (setting [9]) were 80 ppm, 2000 ppm and 1000 ppm, respectively.
